Molecules are shown by their SMILES.

In one assay the target is T1, human APJ receptor (Homo sapiens, UniProt P35414).
T1 construct: expressed in transfected cells; host or cells: HEK293
T1 sequence (P35414 1-380): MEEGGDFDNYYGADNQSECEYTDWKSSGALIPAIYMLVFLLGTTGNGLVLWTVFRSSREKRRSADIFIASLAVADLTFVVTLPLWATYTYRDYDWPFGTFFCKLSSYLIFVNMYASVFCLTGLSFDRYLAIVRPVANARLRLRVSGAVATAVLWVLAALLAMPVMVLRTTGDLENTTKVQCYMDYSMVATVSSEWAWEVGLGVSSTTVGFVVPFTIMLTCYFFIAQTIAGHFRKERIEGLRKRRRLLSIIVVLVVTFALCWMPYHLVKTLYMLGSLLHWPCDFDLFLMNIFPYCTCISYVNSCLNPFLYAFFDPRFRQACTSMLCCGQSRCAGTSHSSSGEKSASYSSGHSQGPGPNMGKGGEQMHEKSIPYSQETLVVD
Nature of the assay: Intracellular cAMP accumulation assay (APJ hcAMP, HTRF). The assay is classed as cell-based. As to conditions: HEK293 cells stably expressing human APJ receptor; inhibition of forskolin-mediated cAMP production; Table 1; read-out: hAPJ cAMP EC50 Potency range. In a few lines: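 HEK293 cells stably expressing the receptor (5,000/well) treated with compound plus […] and 2 μM forskolin for 30 min at room temperature; cAMP by HTRF against a cAMP standard curve. EC50 from variable-slope sigmoidal fit; Ymax as % of (Pyr1)apelin-13 inhibition.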
Background: cAMP levels reflect the balance of adenylyl cyclase and phosphodiesterase activity.
As for `CCCCc1nc(O)c(S(=O)(=O)c2ccc(Br)cc2)c(O)c1N(C)c1ccccc1` [Example 010, 3-((4-bromophenyl)sulfonyl)-6-butyl-5-(methyl(phenyl)amino)pyridine-2,4-diol], the EC50 (as a rule, the midpoint of the concentration-response curve) was in the range of 10 to 100 nM.

In the case of `CCCCc1nc(O)c(S(=O)(=O)c2ccc(-c3ccccc3C#N)cc2)c(O)c1N(CC)c1ccccc1` [Example 083, 4′-((6-butyl-5-(ethyl(phenyl)amino)-2,4-dihydroxypyridin-3-yl)sulfonyl)-[1,1′-biphenyl]-2-carbonitrile], the EC50 lay in the range of 0.01 to 10 nM.

Turning to `CCCCc1nc(O)c(S(=O)(=O)c2ccc(-c3ccncc3C)cc2)c(O)c1N(C)c1ccc(OC)cc1` [Example 037, 6-butyl-5-((4-methoxyphenyl)(methyl)amino)-3-((4-(3-methylpyridin-4-yl)phenyl)sulfonyl)pyridine-2,4-diol], the EC50 was in the range of 0.01 to 10 nM.

Take `CCCCc1nc(O)c(S(=O)(=O)c2ccc(C3CC3)cc2)c(O)c1N(C)c1ccc(C)cc1` [Example 100, 6-butyl-3-((4-cyclopropylphenyl)sulfonyl)-5-(methyl(p-tolyl)amino)pyridine-2,4-diol]: the EC50 lay within 10 to 100 nM.

Consider `CCCCc1nc(O)c(S(=O)(=O)c2ccc(-c3cccnc3C)cc2)c(O)c1N(C)c1cccc(Cl)c1` [Example 102, 6-butyl-5-((3-chlorophenyl)(methyl)amino)-3-((4-(2-methylpyridin-3-yl)phenyl)sulfonyl)pyridine-2,4-diol], for which the EC50 is 10 to 100 nM.

On to `Cc1c(-c2ccc(S(=O)(=O)c3c(O)nc(-c4ccn(C)n4)c(N(c4ccccc4)C(C)C)c3O)cc2)ccnc1F` [Example 164, 3-((4-(2-fluoro-3-methylpyridin-4-yl)phenyl)sulfonyl)-5-(isopropyl(phen-yl)amino)-6-(1-methyl-1H-pyrazol-3-yl)pyridine-2,4-diol], for which the EC50 lay within 0.01 to 10 nM.

Consider `CCCCc1nc(O)c(S(=O)(=O)c2ccc(-c3ccnc(F)c3C)cc2)c(O)c1N(CC)c1cc(C)cc(C)c1` [Example 136, 6-butyl-5-((3,5-dimethylphenyl)(ethyl)amino)-3-((4-(2-fluoro-3-methylpyridin-4-yl)phenyl)sulfonyl)pyridine-2,4-diol], for which the concentration for a half-maximal effect (EC50) fell in the range of 0.01 to 10 nM.

In the case of `CCN(c1ccccc1)c1c(-c2cnn(C)c2)nc(O)c(S(=O)(=O)c2ccc(-c3ccccc3C(=O)N(C)C)cc2)c1O` [Example 154, 4′-((5-(ethyl(phenyl)amino)-2,4-dihydroxy-6-(1-methyl-1H-pyrazol-4-yl)pyridin-3-yl)sulfonyl)-N,N-dimethyl-[1,1′-biphenyl]-2-carboxamide], the EC50 was 0.01 to 10 nM.

Consider `CCCCc1nc(O)c(S(=O)(=O)c2ccc(-c3ccccc3C(N)=O)cc2)c(O)c1N(C)c1ccccc1F` [Example 174, 4′-((6-butyl-5-((2-fluorophenyl)(methyl)a-mino)-2,4-dihydroxypyridin-3-yl)sulfonyl)-[1,1′-biphenyl]-2-carboxamide], for which the half-maximal effective concentration (EC50) fell in the range of 0.01 to 10 nM.

Consider `Cc1ncccc1-c1ccc(S(=O)(=O)c2c(O)nc(-c3ccn(C)n3)c(N(c3ccccc3)C(C)C)c2O)cc1` [Example 165, 5-(iso-propyl(phenyl)amino)-6-(1-methyl-1H-pyrazol-3-yl)-3-((4-(2-methylpyridin-3-yl)phenyl)sulfonyl)pyri-dine-2,4-diol], for which the EC50 is 0.01 to 10 nM.

Regarding `CCCCc1nc(O)c(S(=O)(=O)c2ccc(-c3ccc(F)nc3C)cc2)c(O)c1N(C)c1cccc(C#N)c1` [Example 117, 3-((2-butyl-5-((4-(6-fluoro-2-methylpyridin-3-yl)phenyl)sulfonyl)-4,6-dihydroxypyridin-3-yl)(methyl)amino)benzonitrile], the EC50 is 0.01 to 10 nM.

On to `CCN(c1cccc(C#N)c1)c1c(-c2ccn(C)n2)nc(O)c(S(=O)(=O)c2ccc(-c3ccnc(F)c3C)cc2)c1O` [Example 211, 3-(ethyl(5-((4-(2-fluoro-3-methylpyridin-4-yl)phenyl)sulfonyl)-4,6-dihydroxy-2-(1-methyl-1H-pyrazol-3-yl)pyridin-3-yl)amino)benzonitrile], for which the EC50 was in the range of 0.01 to 10 nM.

Take `CCCCc1nc(O)c(S(=O)(=O)c2ccc(-n3cc(Cl)ccc3=O)cc2)c(O)c1N(C)c1ccccc1` [Example 018, 1-(4-((6-butyl-2,4-dihydroxy-5-(methyl(phenyl)amino)pyridin-3-yl)sulfonyl)phenyl)-5-chloropyridin-2(1H)-one]: the EC50 was in the range of 0.01 to 10 nM.

Consider `CCN(c1ccccc1)c1c(-c2ccn(C)n2)nc(O)c(S(=O)(=O)c2ccc(-c3ccccc3C(=O)NC)cc2)c1O` [Example 056, 4′-((5-(ethyl(phenyl)amino)-2,4-dihydroxy-6-(1-methyl-1H-pyrazol-3-yl)pyridin-3-yl)sulfonyl)-N-methyl-[1,1′-biphenyl]-2-carboxamide], for which the EC50 fell in the range of 0.01 to 10 nM.

In the case of `CCCCc1nc(O)c(S(=O)(=O)c2ccc(-c3ccnc(F)c3C)cc2)c(O)c1N(C)c1cccc(OC)c1` [Example 029, 6-butyl-3-((4-(2-fluoro-3-methylpyridin-4-yl)phenyl)sulfonyl)-5-((3-methoxyphenyl)(methyl)amino)pyridine-2,4-diol], the concentration giving a half-maximal response (EC50) lay within 0.01 to 10 nM.

As for `CCCCc1nc(O)c(S(=O)(=O)c2ccc(-c3ccc(F)nc3C)cc2)c(O)c1N1CCCCC1c1ccccc1` (stereo not drawn) [Example 126, 6-butyl-3-((4-(6-fluoro-2-methylpyridin-3-yl)phenyl)sulfonyl)-5-(2-phenylpiperidin-1-yl)pyridine-2,4-diol], the EC50 lay within 10 to 100 nM.

For the molecule `CCCCc1nc(O)c(S(=O)(=O)c2ccc(-c3cccnc3C)cc2)c(O)c1N(C)c1cccc(OC)c1` [Example 039, 6-butyl-5-((3-methoxyphenyl)(methyl)amino)-3-((4-(2-methylpyridin-3-yl)phenyl)sulfonyl)pyridine-2,4-diol], the EC50 fell in the range of 0.01 to 10 nM.

For the molecule `CCCCc1nc(O)c(S(=O)(=O)c2ccc(-c3ccncc3C)cc2)c(O)c1N1CCCCc2ccccc21` [Example 169, 6-butyl-3-((4-(3-methylpyridin-4-yl)phenyl)sulfonyl)-5-(2,3,4,5-tetrahydro-1H-benzo[b]azepin-1-yl)pyridine-2,4-diol], the EC50 lay in the range of 10 to 100 nM.

On to `CCN(c1ccccc1)c1c(-c2ccn(C)n2)nc(O)c(S(=O)(=O)c2ccc(-c3cccnc3C)cc2)c1O` [Example 058, 5-(ethyl(phenyl)amino)-6-(1-methyl-1H-pyrazol-3-yl)-3-((4-(2-methylpyridin-3-yl)phenyl)sulfonyl)pyridine-2,4-diol], for which the EC50 was in the range of 0.01 to 10 nM.

As for `CCN(c1cccc(C#N)c1)c1c(-c2ccn(C)n2)nc(O)c(S(=O)(=O)c2ccc(-c3ccccc3C(=O)N(C)C)cc2)c1O` [Example 210, 4′-((5-((3-cyano-phenyl)(ethyl)amino)-2,4-dihydroxy-6-(1-methyl-1H-pyrazol-3-yl)pyridin-3-yl)sulfonyl)-N,N-dimethyl-[1,1′-biphenyl]-2-carboxamide], the EC50 is 0.01 to 10 nM.

For the molecule `CCN(c1ccccc1)c1c(CC2CC2)nc(O)c(S(=O)(=O)c2ccc(-c3ccccc3C(=O)N(C)C)cc2)c1O` [Example 062, 4′-((6-(cyclopropylmethyl)-5-(ethyl(phenyl)amino)-2,4-dihydroxypyridin-3-yl)sulfonyl)-N,N-dimethyl-[1,1′-biphenyl]-2-carboxamide], the EC50 is 0.01 to 10 nM.

Consider `CCCCc1nc(O)c(S(=O)(=O)c2ccc(-c3ccccc3C(=O)N(C)C)cc2)c(O)c1N(CC)c1cccc(C#N)c1` [Example 186, 4′-((6-butyl-5-((3-cyanophenyl)(ethyl)a-mino)-2,4-dihydroxypyridin-3-yl)sulfonyl)-N,N-dimethyl-[1,1′-biphenyl]-2-carboxamide], for which the EC50 was 0.01 to 10 nM.

Consider `CCCCc1nc(O)c(S(=O)(=O)c2ccc(-c3ccc(F)nc3C)cc2)c(O)c1N1CCCOc2ccccc21` [Example 115, 6-butyl-5-(3,4-dihydrobenzo[b][1,4]oxazepin-5(2H)-yl)-3-((4-(6-fluoro-2-methylpyridin-3-yl)phenyl)sulfonyl)pyridine-2,4-diol], for which the EC50 was 10 to 100 nM.

As to `CCN(c1ccccc1)c1c(-c2cnc(C)s2)nc(O)c(S(=O)(=O)c2ccc(-c3ccccc3C(=O)NC)cc2)c1O` [Example 192, 4′-((5-(ethyl(phenyl)amino)-2,4-dihydroxy-6-(2-methylthiazol-5-yl)pyridin-3-yl)suflonyl)-N-methyl-[1,1′-biphenyl]-2-carboxamide], the EC50 lay within 0.01 to 10 nM.

Take `CCCCc1nc(O)c(S(=O)(=O)c2ccc(-c3cccnc3C)cc2)c(O)c1N(C)c1cccc(C)c1` [Example 096, 6-butyl-5-(methyl(m-tolyl)amino)-3-((4-(2-methylpyridin-3-yl)phenyl)sulfonyl)pyridine-2,4-diol]: the EC50 is 0.01 to 10 nM.

Staying with this assay, now noted: hAPJ cAMP EC50 Potency range, HEK293 cells stably expressing human APJ receptor; inhibition of forskolin-mediated cAMP production; Table 1.
The molecule `CCCCc1nc(O)c(C(=O)N2CCC(c3ccc(Cl)cn3)C2)c(O)c1N(CC)c1ccccc1` (stereo not drawn) [Example 076, (6-butyl-5-(ethyl(phenyl)amino)-2,4-dihydroxypyridin-3-yl)(3-(5-chloropyridin-2-yl)pyrrolidin-1-yl)methanone] registered an EC50 of 10 to 100 nM.

Still in this assay, the particulars now being: hAPJ cAMP EC50 Potency range, HEK293 cells stably expressing human APJ receptor; inhibition of forskolin-mediated cAMP production; Table 2.
For `CCN(c1ccccc1)c1c(-c2ccn(C)n2)nc(O)c(C(=O)N2CCC(c3ncc(F)cc3F)C2)c1O` (stereo not drawn) [Example 197, (3-(3,5-difluoropyridin-2-yl)pyrrolidin-1-yl)(5-(ethyl(phenyl)amino)-2,4-dihydroxy-6-(1-methyl-1H-pyrazol-3-yl)pyridin-3-yl)methanone], the EC50 was 0.01 to 10 nM.

The values above are taken from patent publication US10669258B2, “3-sulfonyl-5-aminopyridine-2,4-diol APJ agonists” (BRISTOL-MYERS SQUIBB COMPANY, priority 2016, dated 2020).
